We go through one compound from patent US20150071856A1, “ANTAGONISTIC PEPTIDES FOR FRIZZLED-1 AND FRIZZLED-2” (Universiteit Maastricht, priority 2013, published 2015).

One data set has as its target T1, hFzd-4 (Homo sapiens, UniProt Q9ULV1).
T1 construct: expressed in transfected cells; host or cells: HEK293 superTOPflash (transient, Fugene6, pcDNA3.1/hygro)
T1 sequence (Q9ULV1 37-537): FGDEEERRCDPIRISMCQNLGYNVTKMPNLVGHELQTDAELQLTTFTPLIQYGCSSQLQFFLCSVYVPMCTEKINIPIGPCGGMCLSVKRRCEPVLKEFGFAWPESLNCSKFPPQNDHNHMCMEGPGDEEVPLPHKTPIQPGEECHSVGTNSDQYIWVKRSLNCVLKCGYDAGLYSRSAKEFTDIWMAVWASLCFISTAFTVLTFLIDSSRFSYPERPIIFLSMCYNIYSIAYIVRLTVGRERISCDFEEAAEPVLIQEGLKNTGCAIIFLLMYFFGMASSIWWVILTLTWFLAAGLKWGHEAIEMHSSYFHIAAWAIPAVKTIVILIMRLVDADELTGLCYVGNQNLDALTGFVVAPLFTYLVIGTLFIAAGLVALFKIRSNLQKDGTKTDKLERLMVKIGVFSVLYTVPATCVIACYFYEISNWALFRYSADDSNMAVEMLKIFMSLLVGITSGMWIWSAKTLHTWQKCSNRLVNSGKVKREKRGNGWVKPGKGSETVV
Description: Receptor specificity: luciferase in HEK293 superTOPflash cells overexpressing hFzd-4. The conditions noted are these: UM206 1.10^−8 M. It counts as cell-based. The method, then:
In FIG. 3, Panel E, the efficacy of UM206 to block the Wnt3a-induced activation of luciferase activity in HEK293 superTOPflash cells transfected with different Fzds is shown.
The cell lines were cultured in 75 cm^2 culture flasks (Corning, Schiphol, the Netherlands) in Dulbeco's modified essential medium with L-glutamine (2 mM), 10% fetal calf serum (Invitrogen, Merelbeke, Belgium), and 1% gentamycin (Sigma-Aldrich, Zwijndrecht, The Netherlands). Before starting the experiment, the cell lines were treated with plasmocin 25 μg/ml (Invivogen, Toulose, France) and tested with a mycoalert mycoplasma detection kit (Lonza, Rockland Me., USA). Cells were transiently transfected with Fugene6 (Roche, Indianapolis Ind., USA) with plasmid DNA, pcDNA3.1/hygro (Invitrogen) with frizzled-1/2/4 or Wnts 3a-5a or with pcDNA3.0 (Invitrogen) containing the β-catenin or frizzled-5 sequence. After transfection, the cells were cultured for 24 hours in conditioned medium, collected from the cultured L-cells, L-cells with Wnt3a or 5a (Invitrogen). At the same moment the antagonist was added.

A further data set deals with C-FIT cells. Description: Differentiation assay (α-SMA, fibroblast to myofibroblast) in C-FIT cells. The data set is classed as cell-based, rat. An excerpt: For this assay, we used the same C-FIT cells as for the migration assay to study a second component of wound healing, namely, differentiation of fibroblasts into myofibroblasts. When wound healing starts, cells called fibroblasts migrate into the scar. These cells have no contractile properties; however, they can differentiate into myofibroblasts, which can actively contract. To study which signals influence the transition from fibroblast into myofibroblasts, we treated the C-FIT cells and harvested them for mRNA isolation. Next, we tested them for the presence of specific markers for myofibroblasts by reverse transcription of the mRNA and subsequent quantitative PCR analysis, which are absent in fibroblasts. One of those markers is α-smooth muscle actin, which makes the cells contract.
(§1) RNA was isolated using the Trizol method (Invitrogen). For the RT-PCR, the RNA was transcribed to cDNA with Iscript™ cDNA synthesis kit (Bio-Rad, Hercules Calif., USA), Syber green (Eurogentec, Ghent, Belgium) was used for the detection of cDNA levels and cyclophilin served as the house keeping gene. In Supplementary methods panel 5, the primer sequences are shown.

Data set [1] relates to myocardial infarction. The following applies: mouse, in vivo.
Description: To this end, we administered UM206 subcutaneously by an osmotic minipump (6 microgram/kg/day); the control group was equipped with a saline-filled minipump. The minipumps were implanted at the time of infarct induction and lasted for up to five weeks.
Male Swiss mice were used (10-12 weeks of age, Charles River, Maastricht, The Netherlands). The animals were randomly included into the three different experimental groups. […] In the treatment study, either UM206 (6 μg/kg/day) or saline were administrated by an osmotic minipump (Alzet 2002 or 2006 for two- and five-week treatments, respectively; Alzet, Cupertino Calif., USA). MI was induced, under isofluorane anesthesia as previously described (van den Borne et al., 2009).
The subject of data set [2] is myocardial infarction. The data set can be described thus: Hemodynamic measurements (Millar catheter, left ventricle) of mice after myocardial infarction. The conditions noted are these: UM206-treated groups post-MI. It counts as in vivo. As to the method: Cardiac function was further assessed using a Millar pressure recording catheter inserted into the left ventricle. […] These observations further underscore the beneficial effect of UM206 treatment on cardiac function post-MI.
The animals were anaesthetized with urethane ([…], i.p., Sigma-Aldrich) followed by intubation and connected to a rodent ventilator (Hugo Sachs, March-Hugstetten, Germany). Body temperature was maintained at 37° C. The mice were then allowed to stabilize prior to hemodynamic measurements. A high-fidelity catheter tip micromanometer (Mikro-tip1.4F, SPR-671; Millar Instruments, Houston Tex., USA) was inserted through the right carotid artery into the left ventricular cavity. Ventricular pressure was measured. Maximal positive and negative pressure development (+dP/dt and −dP/dt) and heart rate were determined on a beat-to-beat basis. The heart was then stimulated by an i.v. ramp-infusion of dobutamine (Sigma-Aldrich) using a micro-injection pump (Model 200 Series, KdScientific, Boston, Mass., USA).

In a further data set the test system is infarct area. Description: Histological, qPCR and Western blot analysis of the infarct area in mice. It counts as in vivo.
Source text: This was confirmed by histological analysis of the infarct area.
as §1
For Western blot, cells were homogenized in ice-cold Laemmli buffer and protein content was measured using the BCA protein assay (Pierce Biotechnology Inc., Rockford Ill., USA); proteins were denatured by boiling, separated on a 10% SDS-page gel, and transferred onto a Hybond C nitrocellulose membrane (Amersham Biosciences, Little Chalfont, United Kingdom). After blocking, membranes were incubated overnight at 4° C. with primary antibodies against β-catenin, α-SMA (both 1:2000, BD Biosciences, Franklin Lakes N.J., USA) or β-actin (1:2000 Sigma-Aldrich). Anti-mouse immunoglobulin G 1/5000 (Vector Labs Inc.) was used as the secondary antibody, and the membranes were developed using the Supersignal West Pico chemiluminescence kit (Pierce). Images of the blots were analyzed with image analysis software (Qwin Leica, Cambridge, United Kingdom).
One-half of the hearts of the mice was embedded in paraffin and cut in 4 μm sections. The paraffin sections were rehydrated and washed in PBS. One section was stained with AZAN, allowing an accurate determination of the infarct size. To visualize the myofibroblasts in the infarct area, the sections were incubated with an antibody directed against α-smooth muscle actin (Sigma-Aldrich), followed by incubation with the peroxidase-conjugated secondary antibody (Vector laboratories). Nuclei were visualized by hematoxylin. Photos were taken with a Leica (CTR500, 63×/0.85) camera and analyzed with the Quantimet program (QWin/QGo). An examiner blinded to the groups of the animals obtained all measurements. For the experiments with Rhodamine-labeled UM206, frozen sections (4 μm) of mouse kidney and small intestine were used.

“Also recorded” adds a separate entry of the source. Residues, ends and D or L forms follow the SMILES beside them.

On to `CSCC[C@H](NC(=O)CNC(=O)[C@H](CCC(=O)O)NC(=O)[C@H](CO)NC(=O)[C@@H](NC(=O)[C@H](CCCCN)NC(=O)[C@H](CC(N)=O)NC(=O)[C@H](CS)NC(C)=O)[C@@H](C)O)C(=O)N[C@@H](CC(=O)O)C(=O)NCC(=O)N[C@@H](CS)C(=O)N[C@@H](CCC(=O)O)C(=O)N[C@@H](CC(C)C)C(N)=O` [UM206, Ac-Cys-Asn-Lys-Thr-Ser-Glu-Gly-Met-Asp-Gly-Cys-Glu-Leu-NH2] (Ac-CNKTSEGMDGCEL-NH2), for which the “effect on Wnt3a-induced luciferase activity, frizzled-4” value on hFzd-4 is reported as “no effect”. In the data set with C-FIT cells, the “effect on Wnt3a/Wnt5a-induced differentiation, α-SMA levels” value is “completely blocks this differentiation”. In the data set with myocardial infarction [1], the “adverse effects of chronic administration” value was “did not observe any adverse effects”; the “effects on other organs known to contain Fzd-2, including kidney and small intestine” value is “did not observe any effects”. In the data set on myocardial infarction [2], the “positive and negative dP/dt versus saline” value was “higher positive dP/dt and a lower negative dP/dt value”. For the same compound, in the data set on infarct area (2 and 5 weeks after MI), the “infarct area size versus saline” value was “significantly smaller” and the “thickness of the infarct area versus saline” value is reported as “significantly thicker”. Further, the “myofibroblast numbers in the infarct area versus saline” value in the data set with infarct area (five weeks post-MI) is “significantly elevated number”. Moreover, in the data set on infarct area (five weeks treatment), the “blood vessels in the infarct area versus saline” value is on record as “increased amount of blood vessels” and the “collagen levels in the infarct area versus saline” value is given as “reduced collagen levels”. Moreover, the “α-SMA levels in infarcts versus saline” value in the data set with infarct area (five-week-old infarcts, qPCR and Western blotting) is “significantly higher α-SMA levels”. Moreover, in the data set on infarct area (two weeks post-MI), the “myofibroblast numbers in the infarct area versus saline” value is listed as “more than four-fold higher; also recorded: four-fold more myofibroblasts”.
